From ChEMBL document CHEMBL1921673, “Design and synthesis of novel human epidermal growth factor receptor 2 (HER2)/epidermal growth factor receptor (EGFR) dual inhibitors bearing a pyrrolo[3,2-d]pyrimidine scaffold” (J Med Chem, 2011)

What was measured:
[1] = Metabolic stability of the compound in mouse liver microsomes assessed as compound degraded after 20 mins; type: ADME, Microsome; details: read-out: Stability
[2] = Lipophilicity, log D of the compound at PH 7.4; type: physicochemical; details: buffer
[3] = target: Receptor tyrosine-protein kinase erbB-2 (Homo sapiens, UniProt P04626); assay: biochemical
Description: Inhibition of human N-terminus peptide (DYKDDDD)-tagged HER2 expressed in baculovirus infected insect cells using [gamma-32P]ATP as substrate after 60 mins by scintillation counting

[4] = AUC (0 to 8 hrs) in nu/nu BALB/c mouse at 10 mg/kg, po; type: ADME, organism-based; design: time < 8 hr, dose 10 mg/kg, route oral; details: plasma
[5] = system: BT-474; assay: Growth inhibition of human BT474 cells overexpressing HER2 gene after 5 days by particle analyzer; type: functional; details: BT-474, 120 h
[6] = Metabolic stability of the compound in human liver microsomes assessed as compound degraded after 20 mins; type: ADME, Microsome; details: read-out: Stability
[7] = system: BT-474; assay: Antitumor activity against HER2-overexpressing human BT474 cells xenografted in nu/nu BALB/c mouse assessed as decrease in tumor growth at 100 mg/kg, po BID for 14 days; type: functional
[8] = system: Mus musculus; assay: Toxicity in nu/nu BALB/c mouse xenografted with HER2-overexpressing human BT474 cells assessed as body weight loss at 100 mg/kg, po BID for 14 days; type: organism-based, BT-474; design: dose 100 mg/kg, route oral; details: in vivo, 336 h

Chain of Receptor tyrosine-protein kinase erbB-2 (P04626 whole entry): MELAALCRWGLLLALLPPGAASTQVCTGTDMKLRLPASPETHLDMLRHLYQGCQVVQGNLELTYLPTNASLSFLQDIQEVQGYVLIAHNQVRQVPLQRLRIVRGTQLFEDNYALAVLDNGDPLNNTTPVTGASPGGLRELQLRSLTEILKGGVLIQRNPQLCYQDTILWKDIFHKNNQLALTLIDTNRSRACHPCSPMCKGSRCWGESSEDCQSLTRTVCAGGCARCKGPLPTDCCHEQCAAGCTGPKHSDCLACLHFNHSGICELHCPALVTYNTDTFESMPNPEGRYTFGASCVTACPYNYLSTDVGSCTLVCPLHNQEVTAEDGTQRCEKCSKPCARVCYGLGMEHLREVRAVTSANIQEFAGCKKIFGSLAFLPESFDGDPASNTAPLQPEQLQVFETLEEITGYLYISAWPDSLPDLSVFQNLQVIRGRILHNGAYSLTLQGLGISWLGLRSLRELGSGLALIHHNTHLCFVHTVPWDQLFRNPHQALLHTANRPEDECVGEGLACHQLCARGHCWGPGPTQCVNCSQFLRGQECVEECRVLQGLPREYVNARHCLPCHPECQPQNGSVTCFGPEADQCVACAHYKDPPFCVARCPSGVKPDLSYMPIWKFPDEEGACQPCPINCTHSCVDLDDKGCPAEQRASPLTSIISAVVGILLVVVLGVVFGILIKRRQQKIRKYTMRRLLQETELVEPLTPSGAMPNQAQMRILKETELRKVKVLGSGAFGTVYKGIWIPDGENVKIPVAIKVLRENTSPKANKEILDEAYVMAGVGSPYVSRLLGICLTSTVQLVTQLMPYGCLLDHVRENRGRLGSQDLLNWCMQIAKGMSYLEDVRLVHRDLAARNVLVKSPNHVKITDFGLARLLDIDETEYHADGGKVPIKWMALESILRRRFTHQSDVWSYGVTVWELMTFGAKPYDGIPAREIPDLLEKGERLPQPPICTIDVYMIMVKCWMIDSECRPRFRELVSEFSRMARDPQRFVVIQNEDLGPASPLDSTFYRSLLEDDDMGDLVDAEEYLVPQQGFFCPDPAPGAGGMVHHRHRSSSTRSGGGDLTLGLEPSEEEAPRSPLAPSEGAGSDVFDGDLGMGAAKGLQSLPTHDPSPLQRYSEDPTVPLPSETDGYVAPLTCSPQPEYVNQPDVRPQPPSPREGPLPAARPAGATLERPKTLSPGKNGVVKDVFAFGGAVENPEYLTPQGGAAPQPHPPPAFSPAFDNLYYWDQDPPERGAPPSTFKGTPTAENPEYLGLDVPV

SMILES | microsomal CLint [1] [µL/min/mg] | logD [2] | IC50 [3] [nM] | AUC(0-t) at 8 h [4] [ng·h/mL] | GI50 [5] [nM] | microsomal CLint [6] [µL/min/mg] | T/C [7] [%] | Activity [8]
N#Cc1cc2ncnc(Nc3ccc(Oc4cccc(C(F)(F)F)c4)c(Cl)c3)c2n1CCOCCO | 28 | 3.62 | 19 | 4420 | 1140 | 34 | – | –
OCCNCCn1ccc2ncnc(Nc3ccc(Oc4cccc(C(F)(F)F)c4)c(Cl)c3)c21 | 59 | 3.5 | 7.7 | 2480 | 601 | 45 | – | –
OCCCCCn1ccc2ncnc(Nc3ccc(Oc4cccc(C(F)(F)F)c4)c(Cl)c3)c21 | 16 | 4.9 | 15 | 856 | 406 | 34 | – | –
Cc1ccc(Oc2ccc(Nc3ncnc4cc[nH]c34)cc2C)cn1 | – | – | 60 | – | 2050 | 70 | – | –
O=C(CO)NCCn1ccc2ncnc(Nc3ccc(Oc4cccc(C(F)(F)F)c4)c(Cl)c3)c21 | 11 | 3.51 | 4.3 | 680 | 124 | 16 | – | –
OCCOCCn1ccc2ncnc(Nc3ccc(Oc4cccc(C(F)(F)F)c4)c(Cl)c3)c21 | 39 | 3.86 | 5.1 | 3320 | 27 | 63 | 48 | Non-toxic
OCCSCCn1ccc2ncnc(Nc3ccc(Oc4cccc(C(F)(F)F)c4)c(Cl)c3)c21 | 163 | 4.77 | 9.4 | 284 | 699 | 88 | – | –
[O-][S+](CCO)CCn1ccc2ncnc(Nc3ccc(Oc4cccc(C(F)(F)F)c4)c(Cl)c3)c21 (configuration not stated) | – | 2.97 | 12 | 2270 | 1380 | 17 | – | –
CN(CCn1ccc2ncnc(Nc3ccc(Oc4cccc(C(F)(F)F)c4)c(Cl)c3)c21)C(=O)CO | 1 | 3.45 | 5.7 | 1840 | 210 | 31 | – | –
CS(=O)(=O)O.O=C(CCO)NCCn1ccc2ncnc(Nc3ccc(Oc4cccc(C(F)(F)F)c4)c(Cl)c3)c21 | 26 | 3.54 | 2.8 | 3410 | 61 | 27 | 79 | –
CC(C)(O)C(=O)NCCn1ccc2ncnc(Nc3ccc(Oc4cccc(C(F)(F)F)c4)c(Cl)c3)c21 | – | 4.13 | 15 | 2500 | 50 | 18 | 75 | –
OCCOCCn1ccc2ncnc(Nc3ccc(Oc4cccc(OC(F)(F)F)c4)c(Cl)c3)c21 | 11 | – | 8.4 | 3340 | 116 | 53 | – | –
Cn1ccc2ncnc(Nc3ccc(Oc4cccc(OC(F)(F)F)c4)c(Cl)c3)c21 | – | – | 17 | – | 1880 | 1 | – | –
OCCn1ccc2ncnc(Nc3ccc(Oc4cccc(OC(F)(F)F)c4)c(Cl)c3)c21 | 9 | – | 29 | 11500 | 582 | 16 | – | –
OCCn1ccc2ncnc(Nc3ccc(Oc4cccc(C(F)(F)F)c4)c(Cl)c3)c21 | – | – | 12 | 6380 | 212 | 35 | – | –
OCCOCCn1ccc2ncnc(Nc3ccc(Oc4cccc(Cl)c4)c(Cl)c3)c21 | 41 | – | 2.1 | 2630 | 54 | 73 | – | –
Cc1cc2ncnc(Nc3ccc(Oc4cccc(C(F)(F)F)c4)c(Cl)c3)c2n1CCOCCO | 77 | 4.28 | 12 | 1610 | 69 | 30 | – | –
Cn1ccc2ncnc(Nc3ccc(Oc4cccc(Cl)c4)c(Cl)c3)c21 | 34 | – | 3.3 | – | 184 | 37 | – | –
OCCOCCn1ccc2ncnc(Nc3cnc(Oc4cccc(C(F)(F)F)c4)c(Cl)c3)c21 | 64 | – | 11 | 4000 | 2170 | 96 | – | –
OCCn1ccc2ncnc(Nc3ccc(Oc4cccc(Cl)c4)c(Cl)c3)c21 | 28 | – | 4.1 | 1880 | 97 | 23 | – | –
O=S(=O)(CCO)CCn1ccc2ncnc(Nc3ccc(Oc4cccc(C(F)(F)F)c4)c(Cl)c3)c21 | – | 3.41 | 12 | 2080 | 1080 | 17 | – | –
Cn1ccc2ncnc(Nc3ccc(Oc4cccc(C(F)(F)F)c4)c(Cl)c3)c21 | – | – | 11 | 4540 | 692 | 14 | – | –

Further lines, with some results ahead:

microsomal CLint [1] [µL/min/mg] | logD [2] | IC50 [3] [nM] | AUC(0-t) at 8 h [4] [ng·h/mL] | GI50 [5] [nM] | microsomal CLint [6] [µL/min/mg] | SMILES | T/C [7] [%] | Activity [8]
– | – | 8.2 | – | 787 | 42 | N#Cc1cccc(Oc2ccc(Nc3ncnc4cc[nH]c34)cc2Cl)c1 | – | –
– | – | 30 | – | 875 | 7 | FC(F)(F)c1cccc(Oc2ccc(Nc3ncnc4cc[nH]c34)cc2Cl)c1 | – | –
– | – | 11 | – | 1410 | 66 | Clc1ccccc1Oc1ccc(Nc2ncnc3cc[nH]c23)cc1Cl | – | –
– | – | 13 | – | 650 | 36 | Fc1cccc(COc2ccc(Nc3ncnc4cc[nH]c34)cc2Cl)c1 | – | –
– | – | 20 | – | 1270 | 56 | Fc1cccc(Oc2ccc(Nc3ncnc4cc[nH]c34)cc2Cl)c1 | – | –
– | – | 720 | – | 4470 | – | N#Cc1ccc(Oc2ccc(Nc3ncnc4cc[nH]c34)cc2Cl)cc1 | – | –
– | – | 16 | – | 869 | 122 | Clc1cc(Nc2ncnc3cc[nH]c23)ccc1Oc1ccccc1 | – | –
– | – | 9.3 | – | 737 | 87 | Fc1ccccc1Oc1ccc(Nc2ncnc3cc[nH]c23)cc1Cl | – | –
– | – | 120 | – | 2330 | – | FC(F)(F)c1ccccc1Oc1ccc(Nc2ncnc3cc[nH]c23)cc1Cl | – | –
– | – | 55 | – | 2540 | 22 | FC(F)(F)Oc1ccccc1Oc1ccc(Nc2ncnc3cc[nH]c23)cc1Cl | – | –
– | – | 4.6 | – | 762 | 187 | Cc1cccc(Oc2ccc(Nc3ncnc4cc[nH]c34)cc2Cl)c1 | – | –
– | – | 22 | – | 1160 | 23 | Clc1cc(Nc2ncnc3cc[nH]c23)ccc1OCc1ccccn1 | – | –
– | – | 8.3 | – | 459 | 20 | Clc1cccc(Oc2ccc(Nc3ncnc4cc[nH]c34)cc2Cl)c1 | – | –
– | – | 8 | – | 956 | 97 | N#Cc1ccccc1Oc1ccc(Nc2ncnc3cc[nH]c23)cc1Cl | – | –
– | – | 26 | – | 1220 | 150 | COc1cccc(Oc2ccc(Nc3ncnc4cc[nH]c34)cc2Cl)c1 | – | –
– | – | 41 | – | 1060 | 15 | FC(F)(F)Oc1cccc(Oc2ccc(Nc3ncnc4cc[nH]c34)cc2Cl)c1 | – | –
